Measured values taken from PubChem BioAssay AID1918942 (Molecular Pharmacology Branch, DTP, NCI, 2023).
Several values for one entry are separate records, joined by “and”; a condition that tells them apart may be missing. Equal entries are not always repeated.

Tested on: 743489-274-T-PDC complex spheroid viability
Test: Anticancer human tumor 743489-274-T-PDC patient-derived renal cell carcinoma cell line growth inhibition
Settings: for viability, T/C: stronger effect = lower value
Procedure, shortened: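 Drug combinations with the LSD1 inhibitor iadademstat tested on tumor cells co-cultured as spheroids with endothelial cells and mesenchymal stem cells. Concentrations descended in half-log increments from clinical Cmax or 10 microM.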

[1] = curve of first compound, second compound 0.1 µM
[2] = curve of first compound, second compound 0.316 µM
[3] = curve of first compound, second compound 1 µM
[4] = curve of first compound, second compound 3.16 µM
[5] = curve of first compound, second compound 10 µM
[6] = second compound 0.1 µM, first compound 0.00316 µM
[7] = second compound 0.1 µM, first compound 0.01 µM
[8] = second compound 0.1 µM, first compound 0.0316 µM
[9] = second compound 0.1 µM, first compound 0.1 µM
[10] = second compound 0.1 µM, first compound 0.316 µM
[11] = second compound 0.1 µM, first compound 1 µM
[12] = second compound 0.316 µM, first compound 0.00316 µM
[13] = second compound 0.316 µM, first compound 0.01 µM
[14] = second compound 0.316 µM, first compound 0.0316 µM
[15] = second compound 0.316 µM, first compound 0.1 µM
[16] = second compound 0.316 µM, first compound 0.316 µM
[17] = second compound 0.316 µM, first compound 1 µM
[18] = second compound 1 µM, first compound 0.00316 µM
[19] = second compound 1 µM, first compound 0.01 µM
[20] = second compound 1 µM, first compound 0.0316 µM
[21] = second compound 1 µM, first compound 0.1 µM
[22] = second compound 1 µM, first compound 0.316 µM
[23] = second compound 1 µM, first compound 1 µM
[24] = second compound 3.16 µM, first compound 0.00316 µM
[25] = second compound 3.16 µM, first compound 0.01 µM
[26] = second compound 3.16 µM, first compound 0.0316 µM
[27] = second compound 3.16 µM, first compound 0.1 µM
[28] = second compound 3.16 µM, first compound 0.316 µM
[29] = second compound 3.16 µM, first compound 1 µM
[30] = second compound 10 µM, first compound 0.00316 µM
[31] = second compound 10 µM, first compound 0.01 µM
[32] = second compound 10 µM, first compound 0.0316 µM
[33] = second compound 10 µM, first compound 0.1 µM
[34] = second compound 10 µM, first compound 0.316 µM
[35] = second compound 10 µM, first compound 1 µM
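Further: spheroids exposed to compounds for 7 days before readout.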
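Wherever viability, T/C is given: 100% = DMSO vehicle control wells.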

**Q.** `CCN(c1cc(-c2ccc(CN3CCOCC3)cc2)cc(C(=O)NCc2c(C)cc(C)[nH]c2=O)c1C)C1CCOCC1` was tested. Which viability, T/C (compound 0.00949 µM) did it give?
**A.** Its viability, T/C is 106% and 107%.

**Q.** And the viability, T/C (compound 0.03 µM)?
**A.** The viability, T/C was 94.5% and 105%.

**Q.** What about the viability, T/C (compound 0.0949 µM) of the same molecule?
**A.** Its viability, T/C is 87.8% and 92.8%.

**Q.** What about the viability, T/C (compound 0.3 µM) of the same molecule?
**A.** The viability, T/C was 97.2% and 111%.

**Q.** What about the viability, T/C (compound 0.949 µM) of the same molecule?
**A.** The viability, T/C was 98.5% and 105%.

**Q.** And the viability, T/C (compound 3 µM)?
**A.** The viability, T/C was 95.9% and 105%.

**Q.** And the IC50 (curve of compound)?
**A.** The IC50 was over 3000 nM.

**Q.** How did the viability, T/C (compound 0.00949 µM) turn out when `NS(=O)(=O)OCC1CC(n2ccc3c(NC4CCc5ccccc54)ncnc32)CC1O` (centres undefined) was run?
**A.** The viability, T/C was 90.9% and 95.7%.

**Q.** And the viability, T/C (compound 0.03 µM)?
**A.** Its viability, T/C is 95.9% and 111%.

**Q.** What about the viability, T/C (compound 0.0949 µM) of the same molecule?
**A.** The viability, T/C was 111% and 103%.

**Q.** What about the viability, T/C (compound 0.3 µM) of the same molecule?
**A.** The viability, T/C was 118% and 135%.

**Q.** What about the viability, T/C (compound 0.949 µM) of the same molecule?
**A.** Its viability, T/C is 116% and 125%.

**Q.** And the viability, T/C (compound 3 µM)?
**A.** The viability, T/C was 121% and 101%.

**Q.** What about the IC50 (curve of compound) of the same molecule?
**A.** The IC50 was over 3000 nM.

**Q.** Which IC50 [1] does the source give for `Nc1ncn(C2CC(O)C(CO)O2)c(=O)n1` (centres undefined) + NC1CC1c1ccc(-c2cccc(O)c2)cc1 here?
**A.** Its IC50 is over 1000 nM.

**Q.** And the IC50 [2]?
**A.** Its IC50 is over 1000 nM.

**Q.** And the IC50 [3]?
**A.** Its IC50 is over 1000 nM.

**Q.** What about the IC50 [4] of the same molecule?
**A.** Its IC50 is over 1000 nM.

**Q.** What about the IC50 [5] of the same molecule?
**A.** Its IC50 is over 1000 nM.

**Q.** What about the viability, T/C [6] of the same molecule?
**A.** Its viability, T/C is 109%.

**Q.** What about the viability, T/C [7] of the same molecule?
**A.** Its viability, T/C is 101%.

**Q.** And the viability, T/C [8]?
**A.** The viability, T/C was 97.9%.

**Q.** And the viability, T/C [9]?
**A.** The viability, T/C was 95.1%.

**Q.** What about the viability, T/C [10] of the same molecule?
**A.** Its viability, T/C is 91.2%.

**Q.** What about the viability, T/C [11] of the same molecule?
**A.** Its viability, T/C is 117%.

**Q.** And the viability, T/C [12]?
**A.** Its viability, T/C is 104%.

**Q.** What about the viability, T/C [13] of the same molecule?
**A.** The viability, T/C was 101%.

**Q.** And the viability, T/C [14]?
**A.** Its viability, T/C is 97.7%.

**Q.** And the viability, T/C [15]?
**A.** Its viability, T/C is 91.5%.

**Q.** And the viability, T/C [16]?
**A.** Its viability, T/C is 102%.

**Q.** What about the viability, T/C [17] of the same molecule?
**A.** The viability, T/C was 95.3%.

**Q.** What about the viability, T/C [18] of the same molecule?
**A.** The viability, T/C was 107%.

**Q.** What about the viability, T/C [19] of the same molecule?
**A.** Its viability, T/C is 110%.

**Q.** What about the viability, T/C [20] of the same molecule?
**A.** The viability, T/C was 94.1%.

**Q.** And the viability, T/C [21]?
**A.** The viability, T/C was 89.6%.

**Q.** And the viability, T/C [22]?
**A.** Its viability, T/C is 90%.

**Q.** What about the viability, T/C [23] of the same molecule?
**A.** The viability, T/C was 93%.

**Q.** What about the viability, T/C [24] of the same molecule?
**A.** The viability, T/C was 93.2%.

**Q.** What about the viability, T/C [25] of the same molecule?
**A.** The viability, T/C was 102%.

**Q.** What about the viability, T/C [26] of the same molecule?
**A.** The viability, T/C was 105%.

**Q.** And the viability, T/C [27]?
**A.** Its viability, T/C is 88.2%.

**Q.** And the viability, T/C [28]?
**A.** Its viability, T/C is 82.5%.

**Q.** What about the viability, T/C [29] of the same molecule?
**A.** The viability, T/C was 86.8%.

**Q.** And the viability, T/C [30]?
**A.** The viability, T/C was 102%.

**Q.** And the viability, T/C [31]?
**A.** The viability, T/C was 126%.

**Q.** What about the viability, T/C [32] of the same molecule?
**A.** Its viability, T/C is 104%.

**Q.** And the viability, T/C [33]?
**A.** The viability, T/C was 99.7%.

**Q.** What about the viability, T/C [34] of the same molecule?
**A.** Its viability, T/C is 83.2%.

**Q.** And the viability, T/C [35]?
**A.** Its viability, T/C is 88.6%.

**Q.** `COc1cc(Nc2ncc3c(n2)-c2ccc(Cl)cc2C(c2c(F)cccc2OC)=NC3)ccc1C(=O)O` + NC1CCC(NC2CC2c2ccccc2)CC1 was tested. Which IC50 [1] did it give?
**A.** Its IC50 is over 1000 nM.

**Q.** What about the IC50 [2] of the same molecule?
**A.** Its IC50 is over 1000 nM.

**Q.** What about the IC50 [3] of the same molecule?
**A.** The IC50 was over 1000 nM.

**Q.** What about the IC50 [4] of the same molecule?
**A.** Its IC50 is over 1000 nM.

**Q.** And the IC50 [5]?
**A.** The IC50 was over 1000 nM.

**Q.** And the viability, T/C [6]?
**A.** The viability, T/C was 104%.

**Q.** What about the viability, T/C [7] of the same molecule?
**A.** Its viability, T/C is 104%.

**Q.** And the viability, T/C [8]?
**A.** The viability, T/C was 92.6%.

**Q.** And the viability, T/C [9]?
**A.** Its viability, T/C is 86.2%.

**Q.** What about the viability, T/C [10] of the same molecule?
**A.** The viability, T/C was 90.3%.

**Q.** And the viability, T/C [11]?
**A.** Its viability, T/C is 82.2%.

**Q.** What about the viability, T/C [12] of the same molecule?
**A.** Its viability, T/C is 100%.

**Q.** What about the viability, T/C [13] of the same molecule?
**A.** The viability, T/C was 96%.

**Q.** And the viability, T/C [14]?
**A.** The viability, T/C was 103%.

**Q.** What about the viability, T/C [15] of the same molecule?
**A.** Its viability, T/C is 82.5%.

**Q.** What about the viability, T/C [16] of the same molecule?
**A.** The viability, T/C was 89.7%.

**Q.** And the viability, T/C [17]?
**A.** Its viability, T/C is 85%.

**Q.** What about the viability, T/C [18] of the same molecule?
**A.** The viability, T/C was 104%.

**Q.** And the viability, T/C [19]?
**A.** The viability, T/C was 105%.

**Q.** What about the viability, T/C [20] of the same molecule?
**A.** The viability, T/C was 88.8%.

**Q.** And the viability, T/C [21]?
**A.** The viability, T/C was 86.6%.

**Q.** And the viability, T/C [22]?
**A.** Its viability, T/C is 92.5%.

**Q.** What about the viability, T/C [23] of the same molecule?
**A.** Its viability, T/C is 97.2%.

**Q.** What about the viability, T/C [24] of the same molecule?
**A.** Its viability, T/C is 92.6%.

**Q.** What about the viability, T/C [25] of the same molecule?
**A.** Its viability, T/C is 100%.

**Q.** And the viability, T/C [26]?
**A.** Its viability, T/C is 100%.

**Q.** What about the viability, T/C [27] of the same molecule?
**A.** Its viability, T/C is 79.4%.

**Q.** And the viability, T/C [28]?
**A.** Its viability, T/C is 104%.

**Q.** And the viability, T/C [29]?
**A.** Its viability, T/C is 97.2%.

**Q.** What about the viability, T/C [30] of the same molecule?
**A.** Its viability, T/C is 102%.

**Q.** And the viability, T/C [31]?
**A.** The viability, T/C was 111%.

**Q.** What about the viability, T/C [32] of the same molecule?
**A.** Its viability, T/C is 105%.

**Q.** What about the viability, T/C [33] of the same molecule?
**A.** Its viability, T/C is 99.2%.

**Q.** What about the viability, T/C [34] of the same molecule?
**A.** The viability, T/C was 102%.

**Q.** And the viability, T/C [35]?
**A.** The viability, T/C was 93.8%.
